Here are results for 54 molecules from patent US8623862B2, “Derivatives of N-[(1H-pyrazol-1-yl)aryl]-1H-indole or 1H-indazole-3-carboxamide, preparation thereof and applications thereof in therapeutics” (Sanofi, priority 2011, dated 2014).

pIC50: −log10 of the molar value. Where a name gives a salt, the structure may show the parent alone.

The subject of one test is platelet aggregation. As to the kind of experiment: Inhibition of platelet aggregation in vitro (rat blood).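 For Inhibition of platelet aggregation in vitro (rat blood) in μM: aggregation induced by ADP added as 4 µL of a 250 µM solution.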 It is filed as cell-based. The conditions noted are these: 0.1 h; rat platelet-rich plasma, ADP-induced aggregation, area under the curve of absorbance for 6 minutes; read-out: Inhibition of platelet aggregation in vitro (rat blood). The procedure, abridged:
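Platelet-rich plasma from male Sprague-Dawley rats (250-300 g), prepared by centrifugation at 300 g for 5 minutes. Aggregation measured at 37° C in an aggregometer. Percentage inhibition derived from area under the absorbance curve over 6 minutes.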
For the molecule `CCCC(=O)c1cnn(-c2ccc(NC(=O)c3cn(CC(=O)NC4CCCN(C)C4)c4ccc(C)cc34)cc2)c1C` (stereo not drawn) [Compound 267], the pIC50 was 6.35.

Still in this test, the particulars now being: Rattus norvegicus, Platelet, 0.1 h, read-out: Inhibition of platelet aggregation in vitro (rat blood) in μM.
Turning to `CCCC(=O)c1cnn(-c2cnc(NC(=O)c3cn(CC(=O)N4CCN(C)CC4)c4ccc(Cl)cc34)cn2)c1C` [Compound 27, N-[5-(4-Butyryl-5-methyl-1H-pyrazol-1-yl)pyrazin-2-yl]-5-chloro-1-[2-(4-methylpiperazin-1-yl)-2-oxoethyl]-1H-indole-3-carboxamide hydrochloride], the IC50 was 0.3 µM.
Consider `CCCC(=O)c1cnn(-c2ccc(NC(=O)c3cn(CC(=O)N4CCN(CCOC(F)(F)F)CC4)c4ccc(Cl)cc34)nn2)c1C` [Compound 30, N-[6-(4-Butyryl-5-methyl-1H-pyrazol-1-yl)pyridazin-3-yl]-5-chloro-1-(2-oxo-2-{4-[2-(trifluoromethoxy)ethyl]piperazin-1-yl}ethyl)-1H-indole-3-carboxamide hydrochloride], for which the IC50 amounted to 0.1 µM.

The test is the same for the next values; noted with them: rat blood, in vitro; read-out: Inhibition of platelet aggregation in vitro (rat blood).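 For Inhibition of platelet aggregation in vitro (rat blood) in μM: aggregation induced by ADP added as 4 µL of a 250 µM solution.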
Regarding `CCCC(=O)c1cnn(-c2ccc(NC(=O)c3cn(CC(=O)N4CCN(CC(N)=O)CC4)c4ccc(Cl)cc34)cc2)c1C` [Compound 199], the pIC50 was 6.57.
For the molecule `CCCC(=O)c1cnn(-c2ccc(NC(=O)c3cn(CC(=O)N(C)C4CCS(=O)(=O)C4)c4ccc(Cl)cc34)cc2)c1C` (stereo not drawn) [Compound 169], the pIC50 is 6.40.
Same read-out and setting: next, `CCOC(=O)c1cnn(-c2ccc(NC(=O)c3cn(CC(=O)N4CCN(C)CC4)c4ccc(Cl)cc34)cc2)c1C` [Compound 218]: 6.25; `CCCC(=O)c1cnn(-c2ccc(NC(=O)c3cn(CC(=O)N4CCN(CC(F)F)CC4)c4ccc(C)cc34)cc2)c1C` [Compound 118]: 6.54.
On the same count and under the same terms, next, `CCCCN1CCN(C(=O)Cn2cc(C(=O)Nc3ccc(-n4ncc(C(=O)CCC)c4C)cc3)c3cc(Cl)ccc32)CC1` [Compound 151]: 6.60.
Turning to `CCCC(=O)c1cnn(-c2ccc(NC(=O)c3cn(CC(=O)N4Cc5cnn(C)c5C4)c4ccc(Cl)cc34)cc2)c1C` [Compound 174], the pIC50 was 6.31.
As to `CCCC(=O)c1cnn(-c2ccc(NC(=O)c3cn(CC(=O)N4CCN(C)C(=O)C4)c4ccc(Cl)cc34)cc2)c1C` [Compound 184], the pIC50 is 6.77.
Consider `CCCC(=O)c1cnn(-c2ccc(NC(=O)c3cn(CC(=O)N(C)C)c4ccc(N(C)C)cc34)cc2)c1C` [Compound 178], for which the pIC50 was 6.30.
For the molecule `CCCC(=O)c1cnn(-c2ccc(NC(=O)c3cn(CC(=O)N4CCN(CCC(=O)OCC)CC4)c4ccc(Cl)cc34)cc2)c1C` [Compound 153], the pIC50 was 6.54.
For the molecule `CCCC(=O)c1cnn(-c2ccc(NC(=O)c3cn(CC(=O)N4CCN(C)CC4)c4cc(C)c(Br)cc34)cc2)c1C` [Compound 112], the pIC50 is 6.44.
On to `CCCC(=O)c1cnn(-c2ccc(NC(=O)c3cn(CC(=O)N4CC5CCC(C4)N5C)c4ccc(Cl)cc34)cc2)c1C` [Compound 192], for which the pIC50 was 6.57.
For `CCCC(=O)c1cnn(-c2ccc(NC(=O)c3cn(CC(=O)N4CCN(C(C)(C)CO)CC4)c4ccc(Cl)cc34)cc2)c1C` [Compound 181], the pIC50 was 6.74.
Consider `CCCC(=O)c1cnn(-c2ccc(NC(=O)c3cn(CC(=O)N4CCN(Cc5ccc(Cl)cc5)CC4)c4ccc(Cl)cc34)cc2)c1C` [Compound 167], for which the pIC50 was 6.33.
For the molecule `CCCC(=O)c1cnn(-c2ccc(NC(=O)c3cn(CC(=O)N4CCN(C)C(C)(C)C4)c4ccc(Cl)cc34)cc2)c1C` [Compound 186], the pIC50 is 6.60.
Still for that read-out and setting: next, `CCCC(=O)c1cnn(-c2ccc(NC(=O)c3cn(CC(=O)N4CCN(C5COC5)CC4)c4ccc(Cl)cc34)cc2)c1C` [Compound 191]: 6.80; `CCCC(=O)c1cnn(-c2ccc(NC(=O)c3cn(CC(=O)N4CCN5C(=O)CCC5C4)c4ccc(Cl)cc34)cc2)c1C` (stereo not drawn) [Compound 183]: 6.64; `CCCC(=O)c1cnn(-c2ccc(NC(=O)c3cn(CC(=O)N4CCN(Cc5ccccc5OC)CC4)c4ccc(Cl)cc34)cc2)c1C` [Compound 168]: 6.43.
With `CCCC(=O)c1cnn(-c2ccc(NC(=O)c3cn(CC(=O)N4CCN(C)C(CCOC)C4)c4ccc(Cl)cc34)cc2)c1C` (stereo not drawn) [Compound 196], the pIC50 was 6.64.
As for `CCCC(=O)c1cnn(-c2ccc(NC(=O)c3cn(CC(=O)N4CCN(C)CC4)c4cc(F)c(Cl)cc34)cc2)c1C` [Compound 157], the pIC50 is 6.74.
Take `CCCC(=O)c1cnn(-c2ccc(NC(=O)c3cn(CC(=O)N4CCN(CCOC)CC4)c4cc(F)c(Cl)cc34)cc2)c1C` [Compound 158]: the pIC50 is 6.47.
Turning to `CCCC(=O)c1cnn(-c2ccc(NC(=O)c3cn(CC(=O)N4CCN(Cc5cccs5)CC4)c4ccc(C)cc34)cc2)c1C` [Compound 164], the pIC50 was 6.00.
On to `CCCC(=O)c1cnn(-c2ccc(NC(=O)c3cn(CC(=O)N4CCCCC4CN4CCCC4)c4ccc(C)cc34)cc2)c1C` (stereo not drawn) [Compound 141], for which the pIC50 is 6.19.
Same read-out and setting: next, `CCCC(=O)c1cnn(-c2ccc(NC(=O)c3cn(CC(=O)N4CCN(C)CC4)c4cc(C)c(Cl)cc34)cc2)c1C` [Compound 113]: 6.21; `CCCC(=O)c1cnn(-c2ccc(NC(=O)c3cn(CC(=O)N4CCN(Cc5ccc(F)cc5)CC4)c4ccc(Cl)cc34)cc2)c1C` [Compound 165]: 6.51; `CCCC(=O)c1cnn(-c2ccc(NC(=O)c3cn(CC(=O)N4CCN(CCN(C)C(C)=O)CC4)c4ccc(Cl)cc34)cc2)c1C` [Compound 211]: 6.55.
Turning to `CCCC(=O)c1cnn(-c2ccc(NC(=O)c3cn(CC(=O)N4CCN(CCN(C)C)CC4)c4ccc(Cl)cc34)cc2)c1C` [Compound 150], the pIC50 is 6.62.
In the case of `CCCC(=O)c1cnn(-c2ccc(NC(=O)c3cn(CC(=O)N4CCN(C)CC4)c4ccc(C(F)(F)F)cc34)cc2)c1C` [Compound 203], the pIC50 was 6.44.
For the molecule `CCCC(=O)c1cnn(-c2ccc(NC(=O)c3cn(CC(=O)N4CCN(CCOCC)CC4)c4ccc(Cl)cc34)cc2)c1C` [Compound 161], the pIC50 is 6.43.

Staying with this test, now noted: rat platelet-rich plasma, ADP-induced aggregation, area under the curve of absorbance for 6 minutes; read-out: Inhibition of platelet aggregation in vitro (rat blood).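 For Inhibition of platelet aggregation in vitro (rat blood) in μM: aggregation induced by ADP added as 4 µL of a 250 µM solution.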
In the case of `CCCC(=O)c1cnn(-c2ccc(NC(=O)c3cn(CC(=O)N4CC(N5CCCCC5)C4)c4ccc(Cl)cc34)nn2)c1C` [Compound 86], the pIC50 is 6.41.
Consider `CCCC(=O)c1cnn(-c2ccc(NC(=O)c3cn(CC(=O)N4CCC(N)CC4)c4ccc(C)cc34)cc2)c1C` [Compound 252], for which the pIC50 is 6.40.
On the same count and under the same terms, next, `CCCC(=O)c1cnn(-c2ccc(NC(=O)c3cn(CC(=O)N(C)Cc4ccco4)c4ccc(Cl)cc34)nn2)c1C` [Compound 62]: 6.82.
`CCCC(=O)c1cnn(-c2ccc(NC(=O)c3cn(CC(=O)N4CCNC(C)C4)c4ccc(Cl)cc34)cc2)c1C` (stereo not drawn) [Compound 257]: the pIC50 was 6.34.
Consider `CCCC(=O)c1cnn(-c2ccc(NC(=O)c3cn(CC(=O)N4CC(C)N(C)C(C)C4)c4ccc(C)cc34)cc2)c1C` (stereo not drawn) [Compound 263], for which the pIC50 is 6.38.
In the case of `CCCC(=O)c1cnn(-c2ccc(NC(=O)c3cn(CC(=O)N4CCN(Cc5noc(C)n5)CC4)c4ccc(Cl)cc34)nn2)c1C` [Compound 82], the pIC50 was 7.30.
With `CCCC(=O)c1cnn(-c2ccc(NC(=O)c3cn(CC(=O)N4CCN(C)C(C)C4)c4ccc(C)cc34)cc2)c1C` (stereo not drawn) [Compound 269], the pIC50 is 6.46.
Regarding `CCCC(=O)c1cnn(-c2ccc(NC(=O)c3cn(CC(=O)N4CC5CN(C)CC5C4)c4ccc(C)cc34)cc2)c1C` (stereo not drawn) [Compound 266], the pIC50 is 6.40.
Take `CCCC(=O)c1cnn(-c2ccc(NC(=O)c3cn(CC(=O)N4CCC(CO)CC4)c4ccc(Cl)cc34)nn2)c1C` [Compound 56]: the pIC50 was 6.52.
On the same count and under the same terms, next, `CCCC(=O)c1cnn(-c2ccc(NC(=O)c3cn(CC(=O)N(C)CCOC)c4ccc(Cl)cc34)nn2)c1C` [Compound 61]: 7.05; `CCCC(=O)c1cnn(-c2ccc(NC(=O)c3cn(CC(=O)N4CCN(CCC)CC4)c4ccc(Cl)cc34)nn2)c1C` [Compound 48]: 6.85.
On to `CCCC(=O)c1cnn(-c2ccc(NC(=O)c3cn(CC(=O)N4CCN(CC(=O)NC(C)C)CC4)c4ccc(Cl)cc34)nn2)c1C` [Compound 39], for which the pIC50 was 7.40.
For `CCCC(=O)c1cnn(-c2ccc(NC(=O)c3cn(CC(=O)N4CCCC(NC)C4)c4ccc(C)cc34)cc2)c1C` (stereo not drawn) [Compound 251], the pIC50 was 6.27.
Regarding `CCCC(=O)c1cnn(-c2ccc(NC(=O)c3cn(CC(=O)N(C)CCN(C)C)c4ccc(Cl)cc34)nn2)c1C` [Compound 97], the pIC50 was 7.05.
For the molecule `CCCC(=O)c1cnn(-c2ccc(NC(=O)c3cn(CC(=O)N(C)CCO)c4ccc(Cl)cc34)nn2)c1C` [Compound 38], the pIC50 was 7.15.
Turning to `CCCC(=O)c1cnn(-c2ccc(NC(=O)c3cn(CC(=O)N4CCN(CCN(C)C)CC4)c4ccc(Cl)cc34)nn2)c1C` [Compound 98], the pIC50 was 7.15.
On the same count and under the same terms, next, `CCCC(=O)c1cnn(-c2ccc(NC(=O)c3cn(CC(=O)N4CCN(CC5CCCO5)CC4)c4ccc(Cl)cc34)nn2)c1C` (racemic) [Compound 63]: 6.92.
In the case of `CCCC(=O)c1cnn(-c2ccc(NC(=O)c3cn(CC(=O)O)c4ccc(F)cc34)cc2)c1C` [Compound 18], the pIC50 is 4.44.
As to `CCCC(=O)c1cnn(-c2ccc(NC(=O)c3cn(CC(=O)NCc4cc(C)no4)c4ccc(Cl)cc34)nn2)c1C` [Compound 96], the pIC50 was 6.03.
On the same count and under the same terms, next, `CCCC(=O)c1cnn(-c2ccc(NC(=O)c3cn(CC(=O)N4CCN(C5CCS(=O)(=O)C5)CC4)c4ccc(Cl)cc34)nn2)c1C` (stereo not drawn) [Compound 73]: 7.30; `CCCC(=O)c1cnn(-c2ccc(NC(=O)c3cn(CC(=O)N4CCNC(=O)C4)c4ccc(Cl)cc34)nn2)c1C` [Compound 64]: 7.22.
As for `CCCC(=O)c1cnn(-c2ccc(NC(=O)c3cn(CC(=O)N4CCN(c5ccc(F)cc5)CC4)c4ccc(Cl)cc34)nn2)c1C` [Compound 45], the pIC50 was 6.38.
On to `CCCC(=O)c1cnn(-c2ccc(NC(=O)c3cn(CC(=O)N4CCCN(C)CC4)c4ccc(Cl)cc34)nn2)c1C` [Compound 99], for which the pIC50 is 6.96.
